Assay results reported in patent US7803793B2, “Heterocyclic derived metalloprotease inhibitors” (Janssen Pharmaceutica NV, priority 2006, dated 2010).
Where two headings read alike, the source gives them in different places.

Assays:
MMP-2 = target: T1, MMP-2 (Homo sapiens, UniProt P08253); assay: MMP enzymatic assay (Trupoint peptide), MMP-2; assay type: biochemical
T1 construct: Human MMP-2 full length (aa 1-660)
T1 sequence (P08253 30-660): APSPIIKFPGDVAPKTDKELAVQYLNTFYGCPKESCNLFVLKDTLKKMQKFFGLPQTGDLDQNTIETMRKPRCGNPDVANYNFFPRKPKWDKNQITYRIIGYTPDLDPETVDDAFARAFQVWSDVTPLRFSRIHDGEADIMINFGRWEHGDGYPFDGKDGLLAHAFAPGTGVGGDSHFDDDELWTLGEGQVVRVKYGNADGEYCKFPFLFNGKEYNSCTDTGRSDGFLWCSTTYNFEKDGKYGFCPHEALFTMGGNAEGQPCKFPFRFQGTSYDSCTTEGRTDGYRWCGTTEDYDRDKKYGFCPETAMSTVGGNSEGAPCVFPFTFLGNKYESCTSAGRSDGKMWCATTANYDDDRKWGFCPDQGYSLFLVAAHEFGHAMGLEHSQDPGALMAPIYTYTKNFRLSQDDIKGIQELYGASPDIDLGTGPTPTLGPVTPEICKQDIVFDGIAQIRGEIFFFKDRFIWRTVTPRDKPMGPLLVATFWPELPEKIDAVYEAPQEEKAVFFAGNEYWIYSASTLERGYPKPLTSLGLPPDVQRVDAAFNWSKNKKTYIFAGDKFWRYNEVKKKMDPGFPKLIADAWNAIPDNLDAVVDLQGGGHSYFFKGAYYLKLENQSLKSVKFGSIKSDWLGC
Method: [formula] • 1) Prepare appropriate 1×MMP assay buffer from 10× stock. […] Need to prepare a 2.5× concentration stock (2.5 μM) to achieve this concentration in 50 μl. Dilute compound to 2.5 mM in 100% DMSO (a 1:40 dilution), then dilute the 2.5 mM compound to 2.5 μM (1:1000) into 1× assay buffer. Make 1 ml 2.5 μM compound in assay buffer. • 4) Fill the rows B through P of a 384-well plate with assay buffer+0.1% DMSO. • 5) Add 30 ul of the 2.5 μM compound in assay buffer to the top row of the plate, doing each compound in triplicate. The plate setup should be as follows, using GM6001 as plate reference compound:
• 6) Serially dilute 10 μl down the plate to achieve 1:3 dilutions in subsequent wells. After each dilution, change pipette tips to avoid compound carryover. Discard the remaining 10 μl after diluting into the final row. • 7) Prepare enzyme dilutions at 2.5× of final desired concentration (see below). Will need 10 ml enzyme solution per plate. Add enzyme to plate, 20 μl per well. Incubate 1 hr.
• 8) Dilute the 500 μM Trupoint peptide 1:1000 into assay buffer to achieve a 5× working stock of 500 nM. Prepare 5 ml total per plate. Add 10 ul of substrate to each well to achieve a final concentration of 100 nM in well. Also prepare background subtraction wells by adding 10 μl 5× substrate to 40 μl assay buffer per well, typically do ˜32 wells. • 9) Incubate assay at room temperature for 15 min. Read in plate reader.
(§1) Analysis Specifications • Calculate average background value from substrate/assay buffer wells • Subtract this from entire plate • Calculate average of DMSO wells for each enzyme. This is the positive control, 100% value. • For each well, calculate percent of control by dividing well value by the average DMSO value obtained above. • Paste percent of control values into Graphpad Prism 4.0.

MMP-9 = target: T2, MMP-9 (Homo sapiens, UniProt P14780); assay: MMP enzymatic assay (Trupoint peptide), MMP-9; assay type: biochemical
T2 construct: Human MMP-9 catalytic domain (aa 107-446)
T2 sequence (P14780 107-446): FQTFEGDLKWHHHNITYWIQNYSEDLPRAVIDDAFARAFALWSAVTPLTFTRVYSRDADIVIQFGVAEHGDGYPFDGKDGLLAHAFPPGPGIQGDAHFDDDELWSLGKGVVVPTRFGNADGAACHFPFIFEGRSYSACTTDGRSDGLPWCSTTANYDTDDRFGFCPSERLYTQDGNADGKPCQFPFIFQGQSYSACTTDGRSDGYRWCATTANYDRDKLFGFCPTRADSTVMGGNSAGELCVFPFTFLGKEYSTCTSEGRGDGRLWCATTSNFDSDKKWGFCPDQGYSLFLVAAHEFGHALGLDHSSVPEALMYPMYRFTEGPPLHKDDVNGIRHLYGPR
Method: [formula] • 1) Prepare appropriate 1×MMP assay buffer from 10× stock. […] The plate setup should be as follows, using GM6001 as plate reference compound:
• 6) Serially dilute 10 μl down the plate to achieve 1:3 dilutions in subsequent wells. After each dilution, change pipette tips to avoid compound carryover. […] Will need 10 ml enzyme solution per plate. Add enzyme to plate, 20 μl per well. Incubate 1 hr.
Prepare 5 ml total per plate. Add 10 ul of substrate to each well to achieve a final concentration of 100 nM in well. […] Read in plate reader.
as §1

IC50 (MMP-9) [nM] | IC50 (MMP-2) [nM] | Compound | IC50 (MMP-2; read-out: MMP-2 nM IC50) [nM]
1140 | 68.6 | O=C1[C@H](NS(=O)(=O)c2ccc(-c3ccc(Cl)cc3)cc2)CC=CCN1O [Compound 2, 4′-Chloro-biphenyl-4-sulfonic acid (1-hydroxy-2-oxo-2,3,4,7-tetrahydro-1H-azepin-3-(R)-yl)-amide] | 
1.76 | 1.07 | O=C1[C@H](NS(=O)(=O)c2ccc(Oc3ccccc3)cc2)CC=CCN1O [Compound 3, N-(1-Hydroxy-2-oxo-2,3,4,7-tetrahydro-1H-azepin-3-(R)-yl)-4-phenoxy-benzenesulfonamide] | 
2.04 | 1.79 | O=C1[C@H](NS(=O)(=O)c2ccc(Oc3ccc(C(F)(F)F)cc3)cc2)CC=CCN1O [Compound 5, N-(1-Hydroxy-2-oxo-2,3,4,7-tetrahydro-H-azepin-3-(R)-yl)-4-(4-trifluoro-methyl-phenoxy)-benzenesulfonamide] | 
15.9 | 2.67 | O=C1[C@H](NS(=O)(=O)c2ccc(Oc3ccncc3)cc2)CC=CCN1O [Compound 6, N-(1-Hydroxy-2-oxo-2,3,4,7-tetrahydro-1H-azepin-3-(R)-yl)-4-(pyridin-4-yloxy)-benzenesulfonamide] | 
> 1000 | > 1000 | O=C1[C@H](NS(=O)(=O)c2ccc(Oc3ncc(C(F)(F)F)cc3Cl)cc2)CC=CCN1O [Compound 7, 4-(3-Chloro-5-trifluoromethyl-pyridin-2-yloxy)-N-(1-hydroxy-2-oxo-2,3,4,7-tetrahydro-1H-azepin-3-(R)-yl)-benzenesulfonamide] | 
22.9 | 15.1 | O=C1[C@H](NS(=O)(=O)c2ccc(Oc3ccccn3)cc2)CC=CCN1O [Compound 8, N-(1-Hydroxy-2-oxo-2,3,4,7-tetrahydro-1H-azepin-3-(R)-yl)-4-(pyridin-2-yloxy)-benzenesulfonamide] | 
> 1000 | > 1000 | O=C1[C@H](NS(=O)(=O)c2ccc(N3CCC(c4ccccc4)CC3)cc2)CC=CCN1O [Compound 9, N-(1-Hydroxy-2-oxo-2,3,4,7-tetrahydro-1H-azepin-3-(R)-yl)-4-(4-phenyl-piperidin-1-yl)-benzenesulfonamide] | 
> 1000 | > 1000 | O=C1[C@H](NS(=O)(=O)c2ccc(N3CCN(c4ccccc4)CC3)cc2)CC=CCN1O [Compound 10, N-(1-Hydroxy-2-oxo-2,3,4,7-tetrahydro-1H-azepin-3-(R)-yl)-4-(4-phenyl-piperazin-1-yl)-benzenesulfonamide] | 
0.2 | 0.31 | O=C1[C@H](N(CCN2CCOCC2)S(=O)(=O)c2ccc(Oc3ccc(Cl)cc3)cc2)CC=CCN1O [Compound 11, 4-(4-Chloro-phenoxy)-N-(1-hydroxy-2-oxo-2,3,4,7-tetrahydro-1H-azepin-3-(R)-yl)-N-(2-morpholin-4-yl-ethyl)-benzenesulfonamide] | 
1.32 | 1.99 | CN([C@@H]1CC=CCN(O)C1=O)S(=O)(=O)c1ccc(Oc2ccc(Cl)cc2)cc1 [Compound 12, 4-(4-Chloro-phenoxy)-N-(1-hydroxy-2-oxo-2,3,4,7-tetrahydro-1H-azepin-3-(R)-yl)-N-methyl-benzenesulfonamide] | 
0.21 | 0.55 | O=C1[C@H](N(CCN2CCCCC2)S(=O)(=O)c2ccc(Oc3ccc(Cl)cc3)cc2)CC=CCN1O [Compound 13, 4-(4-Chloro-phenoxy)-N-(1-hydroxy-2-oxo-2,3,4,7-tetrahydro-1H-azepin-3-(R)-yl)-N-(2-piperidin-1-yl-ethyl)-benzenesulfonamide] | 
0.2 | 0.49 | CN1CCN(CCN([C@@H]2CC=CCN(O)C2=O)S(=O)(=O)c2ccc(Oc3ccc(Cl)cc3)cc2)CC1 [Compound 14, 4-(4-Chloro-phenoxy)-N-(1-hydroxy-2-oxo-2,3,4,7-tetrahydro-1H-azepin-3-(R)-yl)-N-[2-(4-methyl-piperazin-1-yl)-ethyl]-benzenesulfonamide] | 
> 1000 | > 1000 | O=C1[C@H](NS(=O)(=O)Cc2ccc(Cl)cc2)CC=CCN1O [Compound 15, (4-Chloro-phenyl)-N-(1-hydroxy-2-oxo-2,3,4,7-tetrahydro-1H-azepin-3-(R)-yl)-methanesulfonamide] | 
28.4 | 43 | O=C1[C@H](NS(=O)(=O)c2ccc(Br)s2)CC=CCN1O [Compound 16, 5-Bromo-thiophene-2-sulfonic acid (1-hydroxy-2-oxo-2,3,4,7-tetrahydro-1H-azepin-3-(R)-yl)-amide] | 
10.7 | 3.9 | COc1ccc(-c2ccc(S(=O)(=O)N[C@@H]3CC=CCN(O)C3=O)s2)cc1 [Compound 17, 5-(4-Methoxy-phenyl)-thiophene-2-sulfonic acid (1-hydroxy-2-oxo-2,3,4,7-tetrahydro-1H-azepin-3-(R)-yl)-amide] | 
14.3 | 48.1 | O=C1[C@H](N(CCN2CCOCC2)S(=O)(=O)c2ccc(Br)s2)CC=CCN1O [Compound 18, (R)-5-Bromo-thiophene-2-sulfonic acid (1-hydroxy-2-oxo-2,3,4,7-tetrahydro-1H-azepin-3-yl)-(2-morpholin-4-yl-ethyl)-amide] | 
0.77 | 0.39 | O=C1[C@H](NS(=O)(=O)c2ccc(Oc3ccc(Cl)cc3)cc2)CC=C(CN2CCOCC2)CN1O [Compound 19, 4-(4-Chloro-phenoxy)-N-(1-hydroxy-6-morpholin-4-ylmethyl-2-oxo-2,3,4,7-tetrahydro-1H-azepin-3-(R)-yl)-benzenesulfonamide] | 
0.68 | 0.72 | CC1=CC[C@@H](NS(=O)(=O)c2ccc(Oc3ccc(Cl)cc3)cc2)C(=O)N(O)C1 [Compound 20, (R)-4-(4-Chloro-phenoxy)-N-(1-hydroxy-6-methyl-2-oxo-2,3,4,7-tetrahydro-1H-azepin-3-yl)-benzenesulfonamide] | 
32.7 |  | CN(c1cccn(O)c1=O)S(=O)(=O)c1ccc(Oc2ccc(C(F)(F)F)cc2)cc1 [Compound 30, N-(1-Hydroxy-2-oxo-1,2-dihydro-pyridin-3-yl)-N-methyl-4-(4-trifluoromethyl-phenoxy)-benzenesulfonamide] | 
 |  | Cc1ccn(O)c(=O)c1N(C)S(=O)(=O)c1ccc(Oc2ccc(Cl)cc2)cc1 [Compound 31, 4-(4-Chloro-phenoxy)-N-(1-hydroxy-4-methyl-2-oxo-1,2-dihydro-pyridin-3-yl)-N-methyl-benzenesulfonamide] | 66.2
 |  | CN(c1cc(Br)cn(O)c1=O)S(=O)(=O)c1ccc(Oc2ccc(Cl)cc2)cc1 [Compound 32, N-(5-Bromo-1-hydroxy-2-oxo-1,2-dihydro-pyridin-3-yl)-4-(4-chloro-phenoxy)-N-methyl-benzenesulfonamide] | 662
57.9 |  | O=C1[C@H](NS(=O)(=O)c2ccc(Oc3ccc(Cl)cc3)cc2)CCCN1O [Compound 57, (R)-4-(4-Chloro-phenoxy)-N-(1-hydroxy-2-oxo-piperidin-3-yl)-benzene-sulfonamide] | 

Compound | IC50 (MMP-9) [nM] | IC50 (MMP-2) [nM] | IC50 (MMP-2; read-out: MMP-2 nM IC50) [nM]
1-Hydroxy-3-(4′-trifluoromethoxy-biphenyl-4-sulfonyl)-azepan-2-one [Compound 85] | > 1000 |  | > 1000
4-(4-Chloro-phenoxy)-N-(1-hydroxy-2-oxo-2,3,4,7-tetrahydro-1H-azepin-3-(R)-yl)-benzenesulfonamide [Compound 1] | 0.78 |  | 0.81
